Test results taken from the supplement of paper PMC10307832.

Compound: COc1cc(-c2nn([C@H]3CC[C@H](N4CCN(C(C)=O)CC4)CC3)c3ncnc(N)c23)ccc1NC(=O)c1cc2ccccc2n1C + CC(C)C[C@H](NC(=O)[C@H](Cc1ccccc1)NC(=O)c1cnccn1)B(O)O [Bortezomib] (partner 0.002 µM)
Assay: relative viability (nuclei count vs DMSO), 5 days (fraction); higher = more cells survive
Conditions: first compound 0.128 µM
In short: (§1)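 Relative viability is defined as nuclei in treated wells over nuclei in vehicle wells. Duplicate plates were run and medians reported. Lung cancer cell lines in 1536-well plates were dosed by pin tool one day after seeding, with one drug or with a fixed anchor-drug dose plus five library-drug doses (not always all listed) in √10 steps, and nuclei were counted after 5 days.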

Cell Line	relative viability
LCLC-103H	1.15
NCI-H520	0.358
NCI-H2126	1.06
EMC-BAC-2	1.04
NCI-H2085	1.12
Calu-6	0.869
HCC-366	1.09
NCI-H1666	0.807
NCI-H596	0.908
NCI-H2087	0.869
H3255	0.721
COR-L23	0.873
COR-L 105	0.657
IA-LM	0.896
HCC-44	0.897
NCI-H1299	1.06
NCI-H1792	0.948
NCI-H1563	0.824
ABC-1	0.26

Same assay, conditions: first compound 1.28 µM

Cell Line	relative viability
NCI-H727	1.06
NCI-H1650	0.205
EBC-1	0.481
NCI-H1703	0.235
NCI-H1993	0.956
SW 1573	0.8
NCI-H838	0.628
LCLC-103H	0.99
NCI-H520	0.334
NCI-H2126	1.03
EMC-BAC-2	1.12
NCI-H2085	1.14
Calu-6	0.754
HCC-366	0.849
NCI-H1666	0.68
NCI-H596	0.954
NCI-H2087	0.991
H3255	0.779
COR-L23	0.908
COR-L 105	0.386
IA-LM	0.631
HCC-44	1.27
NCI-H1299	1.22
NCI-H1792	0.67
NCI-H1563	0.664
ABC-1	0.3

Compound: COc1cc(-c2nn([C@H]3CC[C@H](N4CCN(C(C)=O)CC4)CC3)c3ncnc(N)c23)ccc1NC(=O)c1cc2ccccc2n1C + O=C(CCCCCCC(=O)Nc1ccccc1)NO [Vorinostat] (partner 1 µM)
Assay: as above
Conditions: first compound 0.0128 µM
In short: as §1

Cell Line	relative viability
NCI-H2342	0.762
NCI-H727	1.35
NCI-H1650	0.575
NCI-H1993	0.916
SW 1573	0.805
NCI-H838	0.783
LCLC-103H	0.63
NCI-H520	0.738
NCI-H2126	0.92
EMC-BAC-2	0.466
NCI-H2085	0.83
HCC-366	0.432
NCI-H1666	1.14
NCI-H596	0.779
LK-2	0.365
NCI-H2087	0.745

Cell Line	relative viability
NCI-H1648	0.536
SK-MES-1	1.17
H3255	1.01
COR-L23	0.528
COR-L 105	0.75
IA-LM	1.07
NCI-H2170	1.09
HCC-44	1.24
NCI-H522	0.898
SW 900	0.806
NCI-H1395	0.823
NCI-H1793	0.981
NCI-H1944	0.654
ABC-1	1.21
NCI-H358	0.706

Same assay, conditions: first compound 0.04048 µM

Cell Line	relative viability
NCI-H2342	0.758
NCI-H1650	0.829
NCI-H1993	0.682
SW 1573	0.735
NCI-H838	0.763
LCLC-103H	0.768
NCI-H520	0.652
NCI-H2126	0.621
EMC-BAC-2	0.602
NCI-H2085	1.17
HCC-366	0.361
NCI-H1666	0.938
NCI-H596	0.703
LK-2	0.162
NCI-H1648	0.48
SK-MES-1	1.14
H3255	0.725
COR-L23	0.615
COR-L 105	1.04
IA-LM	0.877
NCI-H2170	0.969
HCC-44	1.1
NCI-H522	0.946
SW 900	0.582
NCI-H1395	0.594
NCI-H1793	0.658
NCI-H1944	0.641
ABC-1	0.965
NCI-H358	0.672

Same assay, conditions: first compound 0.128 µM

Cell Line	relative viability
NCI-H2342	0.861
NCI-H727	1.22
NCI-H1650	0.663
NCI-H1993	0.957
SW 1573	0.817
NCI-H838	0.742
LCLC-103H	0.802
NCI-H520	0.6
NCI-H2126	0.658
EMC-BAC-2	0.418
NCI-H2085	0.764
HCC-366	0.346
NCI-H1666	1.13
NCI-H596	0.629
LK-2	0.288
NCI-H2087	0.798

Cell Line	relative viability
NCI-H1648	0.526
SK-MES-1	1.08
H3255	0.824
COR-L23	0.42
COR-L 105	0.907
IA-LM	0.79
NCI-H2170	0.8
HCC-44	1.12
NCI-H522	0.823
SW 900	0.511
NCI-H1395	0.698
NCI-H1793	0.794
NCI-H1944	0.578
ABC-1	1.19
NCI-H358	0.523

Same assay, conditions: first compound 1.28 µM

Cell Line	relative viability
NCI-H2342	0.825
NCI-H727	1.25
NCI-H1650	0.578
NCI-H1993	0.726
SW 1573	0.723
NCI-H838	0.685
LCLC-103H	0.819
NCI-H520	0.543
NCI-H2126	0.636
EMC-BAC-2	0.504
NCI-H2085	0.759
HCC-366	0.451
NCI-H1666	1.14
NCI-H596	0.611
LK-2	0.183
NCI-H2087	0.987

Cell Line	relative viability
NCI-H1648	0.341
SK-MES-1	1.13
H3255	0.708
COR-L23	0.558
COR-L 105	0.584
IA-LM	0.912
NCI-H2170	0.704
HCC-44	1.18
NCI-H522	0.79
SW 900	0.621
NCI-H1395	0.516
NCI-H1793	0.528
NCI-H1944	0.416
ABC-1	1.14
NCI-H358	0.646

Compound: CO[C@@H]1[C@H](N(C)C(=O)c2ccccc2)C[C@H]2O[C@]1(C)n1c3ccccc3c3c4c(c5c6ccccc6n2c5c31)C(=O)NC4 [Midostaurin] + N=C(N)NC(=N)NCCc1ccccc1 [Phenformin] (partner 250 µM)
Assay: as above
Conditions: first compound 0.01 µM
In short: as §1

Cell Line	relative viability
NCI-H2342	0.657
NCI-H1623	0.588
NCI-H727	0.545
NCI-H1650	0.408
NCI-H1993	0.476
SW 1573	0.379
NCI-H838	0.704
LCLC-103H	0.347
NCI-H520	0.572
NCI-H2126	0.519
EMC-BAC-2	0.508
NCI-H2085	0.718
HCC-366	0.597
NCI-H1666	0.496
NCI-H596	0.898
LK-2	0.425
NCI-H2087	0.457

Cell Line	relative viability
SK-MES-1	0.647
H3255	0.376
COR-L23	0.446
COR-L 105	0.535
NCI-H2170	0.357
HCC-44	0.157
A549	0.139
NCI-H522	0.596
SW 900	0.608
NCI-H1395	0.459
NCI-H1792	0.508
NCI-H1793	0.444
NCI-H1563	0.693
NCI-H1944	0.217
ABC-1	0.23
NCI-H358	0.404

Same assay, conditions: first compound 0.03162 µM

Cell Line	relative viability
NCI-H2342	0.561
NCI-H1623	0.626
NCI-H727	0.437
NCI-H1650	0.498
NCI-H1993	0.498
SW 1573	0.462
NCI-H838	0.551
LCLC-103H	0.309
NCI-H520	0.471
NCI-H2126	0.467
EMC-BAC-2	0.508
NCI-H2085	0.627
HCC-366	0.528
NCI-H1666	0.537
NCI-H596	0.963
LK-2	0.571
NCI-H2087	0.474

Cell Line	relative viability
SK-MES-1	0.582
H3255	0.34
COR-L23	0.411
COR-L 105	0.44
NCI-H2170	0.384
HCC-44	0.251
A549	0.126
NCI-H522	0.706
SW 900	0.451
NCI-H1395	0.459
NCI-H1792	0.303
NCI-H1793	0.325
NCI-H1563	0.672
NCI-H1944	0.196
ABC-1	0.242
NCI-H358	0.331

Same assay, conditions: first compound 0.1 µM

Cell Line	relative viability
NCI-H2342	0.587
NCI-H1623	0.56
NCI-H727	0.665
NCI-H1650	0.413
NCI-H1993	0.477
SW 1573	0.41
NCI-H838	0.397
LCLC-103H	0.359
NCI-H520	0.756
NCI-H2126	0.565
EMC-BAC-2	0.458
NCI-H2085	0.749
HCC-366	0.689
NCI-H1666	0.546
NCI-H596	0.816
LK-2	0.492
NCI-H2087	0.445

Cell Line	relative viability
SK-MES-1	0.631
H3255	0.311
COR-L23	0.418
COR-L 105	0.473
NCI-H2170	0.404
HCC-44	0.167
A549	0.166
NCI-H522	0.655
SW 900	0.653
NCI-H1395	0.488
NCI-H1792	0.428
NCI-H1793	0.36
NCI-H1563	0.697
NCI-H1944	0.239
ABC-1	0.233
NCI-H358	0.371

Same assay, conditions: first compound 0.3162 µM

Cell Line	relative viability
NCI-H2342	0.643
NCI-H1623	0.634
NCI-H727	0.538
NCI-H1650	0.302
NCI-H1993	0.508
SW 1573	0.308
NCI-H838	0.274
LCLC-103H	0.366
NCI-H520	0.634
NCI-H2126	0.564
EMC-BAC-2	0.283
NCI-H2085	0.583
HCC-366	0.615
NCI-H1666	0.537
NCI-H596	0.986
LK-2	0.374
NCI-H2087	0.399

Cell Line	relative viability
SK-MES-1	0.562
H3255	0.34
COR-L23	0.388
COR-L 105	0.389
NCI-H2170	0.347
HCC-44	0.201
A549	0.209
NCI-H522	0.753
SW 900	0.395
NCI-H1395	0.523
NCI-H1792	0.309
NCI-H1793	0.26
NCI-H1563	0.682
NCI-H1944	0.235
ABC-1	0.228
NCI-H358	0.353
